Source: US10286038B2, “Lysosome membrane protein 2 (LIMP-2) based peptides and related uses” (Northwestern University, priority 2016, dated 2019)

How the values were obtained:
[1] = target: T1, recombinant α-mannosidase (LAMAN) (Homo sapiens, UniProt O00754); test: peptide pulldown of recombinant LAMAN; format: binding; conditions: neutral pH
T1 construct: purchased Zymenex, Hillerod, DK
T1 sequence (O00754 50-1011): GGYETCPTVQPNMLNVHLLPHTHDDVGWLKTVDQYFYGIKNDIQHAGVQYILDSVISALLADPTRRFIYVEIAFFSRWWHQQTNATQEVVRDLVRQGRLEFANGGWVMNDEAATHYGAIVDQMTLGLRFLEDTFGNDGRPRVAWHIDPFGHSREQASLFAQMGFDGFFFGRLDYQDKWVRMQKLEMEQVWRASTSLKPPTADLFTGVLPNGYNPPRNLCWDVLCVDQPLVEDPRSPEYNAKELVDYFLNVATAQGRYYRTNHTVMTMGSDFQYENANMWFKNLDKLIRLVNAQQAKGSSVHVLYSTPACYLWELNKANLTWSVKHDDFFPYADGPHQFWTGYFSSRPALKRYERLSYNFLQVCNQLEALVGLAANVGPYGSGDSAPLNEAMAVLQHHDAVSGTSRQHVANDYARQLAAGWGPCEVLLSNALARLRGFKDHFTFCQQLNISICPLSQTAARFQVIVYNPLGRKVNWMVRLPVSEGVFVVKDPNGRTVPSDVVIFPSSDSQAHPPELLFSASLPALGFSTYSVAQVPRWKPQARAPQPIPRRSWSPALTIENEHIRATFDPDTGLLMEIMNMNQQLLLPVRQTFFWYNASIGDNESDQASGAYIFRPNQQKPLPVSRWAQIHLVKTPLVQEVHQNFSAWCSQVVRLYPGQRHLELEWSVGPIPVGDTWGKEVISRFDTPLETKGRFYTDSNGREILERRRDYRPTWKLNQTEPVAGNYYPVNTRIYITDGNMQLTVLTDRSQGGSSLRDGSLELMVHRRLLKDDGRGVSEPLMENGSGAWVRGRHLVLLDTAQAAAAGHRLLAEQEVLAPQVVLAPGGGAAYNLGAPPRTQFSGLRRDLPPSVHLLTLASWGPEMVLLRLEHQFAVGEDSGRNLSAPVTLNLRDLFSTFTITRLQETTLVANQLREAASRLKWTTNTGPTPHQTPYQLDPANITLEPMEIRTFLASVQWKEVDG
Description: FIG. 6: Characterization of a helical LIMP-2-derived peptide. […] B) In vitro peptide pulldown assay: helix 5 peptides were incubated with recombinant LAMAN and bovine serum albumin (BSA). INPUT and BOUND fractions were loaded onto SDS-PAGE and proteins visualized by coomassie staining (CBB). C) Densitometry of LAMAN and BSA protein bound to peptide, normalized to protein fraction bound to beads only (buffer; n=2-3). D) and E) Activity assay of recombinant (D) GC and (E) LAMAN incubated with different excess molarities (1×-10×) of helix 5 peptide (n=β-5) and LIMP-2 ectodomain (n=4). GC activities were normalized and statistical analyses compared to 0 input of BSA/helix 5 peptide. F) Peptide-pulldown of GC constructs overexpressed in N2a cells with subsequent Western blot analysis (α-hGC) utilizing helix 5 and the 3×D control peptide as a negative binding control. G) Densitometry of GC protein bound to peptides; each construct is normalized to buffer only. H) Live-cell lysosomal GC activity of H4 cells after uptake of helix 5 and 3×D TAT peptides. GC activity was measures every 30 minutes up to 3.5 hours. Cells were treated with DMSO or the “lysosomal inhibitor” bafilomycinA1. […] Lysosomal activity is calculated by subtracting the AUC of DMSO with the AUC of bafilomycinA1 treated samples (n=4). […] GC activity was measured from 16-74 hours and is shown in mU/mg (n=3). […]

[2] = target: T1, recombinant α-mannosidase (LAMAN); test: recombinant LAMAN activity assay; format: biochemical; conditions: 1×-10× molar excess, acid pH
Excerpt: To determine the enzymatic activity of the recombinant enzymes, lyophilized enzymes were reconstituted in the NaPi buffer described above. The lyophilized samples of wild-type GC (Cerezyme®) and the custom-made recombinant N307S mutant enzyme contain 0.01% polysorbate 80 (Tween 80) (see prescription information for Cerezyme® at the website for Cerezyme®). As indicated in our experiments, the concentration of the detergent is sufficient to support active GC enzyme and to perform the in vitro GC activity assays without adding further detergents to the reaction mix. For enzyme activity assays of recombinant proteins, 0.1-0.2 nmol of GC (Cerezyme®; N370S) and LAMAN were used in the absence or presence of 10× the molar amount of LIMP-2-derived peptides (Table 1) or LIMP-2 ectodomain (1-2 nmol) (Table 3).
All activity assays were performed at acid pH.

## Biotin-Ttds-LREIIEAMLKAYQQKLFVTHTVDE [helix 5 peptide]
[1]
  interaction with recombinant α-mannosidase (LAMAN): no interaction
[2]
  effect on enzymatic activity of recombinant LAMAN: No effect
